Measurements reported in paper PMC5730604.
Positions of bridges follow the written chain, without caps; N, C: chain ends. Non-standard residues stand in square brackets, D forms with d. Residues, ends and D or L forms follow the SMILES beside them. Chains are numbered I, II in the order given. *: point of attachment. PEG28 = NCCOCCOCCOCCOCCOCCOCCOCCOCCOCCOCCOCCOCCOCCOCCOCCOCCOCCOCCOCCOCCOCCOCCOCCOCCOCCOCCOCCOCCC(=O)O; Tyr(3-NO2) = N[C@@H](Cc1ccc(O)c([N+](=O)[O-])c1)C(=O)O; Hyp = O=C(O)[C@@H]1C[C@@H](O)CN1; For = O=C*

How the values were obtained:
mouse skin = test: Local skin inflammation model, immune cell infiltration; type: in vivo; conditions: immune-deficient Balb/c nu/nu mice, s.c., 200 nmol to 500 nmol, 24 h
Procedure: (§1) Animals: Eighth Edition. W ashington, DC: The National Academies Press, 2011) were […]
(§2) Committee (LANUV AZ. 87- 51.04.2010.A278). All experiments were performed in the Institute […]
(§3) GmbH (Sulzf eld, Germany) were used. Mice were housed in individual ventilated cages under […]
(§4) humidity and a 12h dark/light cycle.
(§5) Soest, Germany) was given ad libitum. Guinea pigs were housed in conventional open cages in the same way as describe for mice. Animals were allowed to acclimatize to their […]
(§6) additional immunohistochemical stainings with antibodies against granulocytes/monocytes

guinea pig skin = test: as above; type: in vivo; conditions: s.c. 100 nmol
Procedure: as §1, §2, §3, §4, §5, §6

[1] = fresh mouse serum, 60 µM, extraction and RP-HPLC (C4) quantification at 214 and 375 nm
Procedure: (§7) vor t exing the sample was incubated f or 48 h. At specif ic time points, the solution was again
(§8) vortexed, a sample (95 µl) was withdra wn and subjected to ultraf iltration (Vivaspin 500, 10 k Da
(§9) cutoff; 15 min, 16,000 g). The f iltrate was put on ice while the f ilter remainder was mixed with
(§10) an equal volume of ethanol (95%), vortexed and centrifuged (5 min, 16.000 g). W ith the
(§11) resulting supernatant, this procedure was repeated. The f inal supernatant was mixed with an
(§12) equal volume of f iltrate, shock frozen in liq uid nitr og en and stored at - 80 °C until analysis. RP -
(§13) HPLC analysis was performed using an analytical C4- RP column with a gradient of 5-65%
(§14) absorption at 214 and 375 nm (specif ic absorption maximum of the nitro-tyrosine building block
The absorption peak observed at the

HT-29 cells = HT-29 cells (Homo sapiens, UniProt P26006); test: Competition with 200 nM B9-Biotin (flow cytometry); type: binding
HT-29 cells, sequence (P26006 33-1051): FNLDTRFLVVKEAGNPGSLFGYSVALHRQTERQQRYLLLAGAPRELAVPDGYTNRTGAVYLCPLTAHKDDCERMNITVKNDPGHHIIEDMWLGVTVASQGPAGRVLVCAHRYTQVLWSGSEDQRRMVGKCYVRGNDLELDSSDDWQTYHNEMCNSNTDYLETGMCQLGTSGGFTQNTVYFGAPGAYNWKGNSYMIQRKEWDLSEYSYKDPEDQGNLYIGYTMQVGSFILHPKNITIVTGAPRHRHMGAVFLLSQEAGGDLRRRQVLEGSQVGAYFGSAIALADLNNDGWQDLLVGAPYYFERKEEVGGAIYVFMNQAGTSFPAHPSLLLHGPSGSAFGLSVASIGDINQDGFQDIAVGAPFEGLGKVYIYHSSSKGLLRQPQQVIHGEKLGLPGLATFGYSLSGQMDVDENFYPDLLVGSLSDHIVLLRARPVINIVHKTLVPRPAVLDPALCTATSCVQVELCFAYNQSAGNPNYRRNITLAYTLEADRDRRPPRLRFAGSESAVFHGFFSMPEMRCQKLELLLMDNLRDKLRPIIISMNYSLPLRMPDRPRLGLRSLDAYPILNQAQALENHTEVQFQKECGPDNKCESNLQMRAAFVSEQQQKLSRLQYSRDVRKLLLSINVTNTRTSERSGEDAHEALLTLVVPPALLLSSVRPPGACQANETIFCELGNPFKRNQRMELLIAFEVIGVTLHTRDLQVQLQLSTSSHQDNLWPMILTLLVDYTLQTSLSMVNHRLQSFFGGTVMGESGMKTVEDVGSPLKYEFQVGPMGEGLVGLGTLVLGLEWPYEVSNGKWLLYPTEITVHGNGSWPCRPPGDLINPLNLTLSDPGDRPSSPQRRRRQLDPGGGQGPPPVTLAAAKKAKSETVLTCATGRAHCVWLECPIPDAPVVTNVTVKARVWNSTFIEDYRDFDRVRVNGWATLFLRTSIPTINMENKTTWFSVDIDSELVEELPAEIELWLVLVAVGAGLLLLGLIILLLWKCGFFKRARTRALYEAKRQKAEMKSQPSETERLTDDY
HT-29 cells, sequence (P05556 21-798 partner): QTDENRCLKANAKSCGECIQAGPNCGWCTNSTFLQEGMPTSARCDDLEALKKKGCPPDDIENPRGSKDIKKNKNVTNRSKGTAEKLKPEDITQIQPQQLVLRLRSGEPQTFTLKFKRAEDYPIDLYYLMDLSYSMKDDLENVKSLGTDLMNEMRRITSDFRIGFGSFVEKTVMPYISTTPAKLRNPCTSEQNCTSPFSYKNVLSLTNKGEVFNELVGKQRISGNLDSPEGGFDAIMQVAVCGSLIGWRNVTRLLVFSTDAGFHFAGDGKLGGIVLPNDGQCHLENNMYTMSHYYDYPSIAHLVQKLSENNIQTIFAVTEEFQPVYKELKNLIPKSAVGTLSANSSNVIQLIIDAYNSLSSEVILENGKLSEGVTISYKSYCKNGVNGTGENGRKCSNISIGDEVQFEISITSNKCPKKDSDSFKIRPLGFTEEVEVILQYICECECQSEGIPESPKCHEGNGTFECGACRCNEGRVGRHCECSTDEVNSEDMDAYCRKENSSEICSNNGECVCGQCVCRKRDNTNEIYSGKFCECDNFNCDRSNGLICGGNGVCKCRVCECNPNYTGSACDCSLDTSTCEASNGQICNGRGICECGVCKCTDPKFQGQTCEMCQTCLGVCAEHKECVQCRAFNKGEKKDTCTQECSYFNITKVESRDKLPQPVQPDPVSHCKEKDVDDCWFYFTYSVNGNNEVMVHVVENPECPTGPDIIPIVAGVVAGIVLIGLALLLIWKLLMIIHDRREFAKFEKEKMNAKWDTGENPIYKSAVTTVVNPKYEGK

[2] = system: A431, U-87 or HT-29 cells; test: MTT assay; type: cell-based, Human; conditions: 100 nM to 10 µM, 24 h or 72 h, A431, U-87, HT-29 cells, triplicates
Procedure: were recorded at 278 K and referenced to the water signal. Spectra were assigned with CCPNMR1 using the sequential assignment protocol. Secondary Hα chemical shif ts were calculated as the difference between the measured Hα chemical shift and the respective random coil shif t.2 Random coil shifts were temperature corrected using the correction factors calculated by Kjaergaard et al.3 For the D-amino acids, the random coil shift of the respective L-amino acid was used, the random coil shif t of Tyr was used for Tyr(3-NO2) and 4.54 ppm was used f or Hyp Hα . Oxid ized Y9 (MW 5268.0) was prepared by dissolving Y9 in Na2HPO4 buff er (50 mM, pH 7.0). After HPLC purif ication, the oxidized Y9 (2.1 mg) was dissolved in 90% H2O/10% D2O (500 µL) at pH 2.9 and NMR spectra were acquired as described above. […]
Stained cells were analyzed by f low cytometr y. […]
At the end of the incubation period (24 h or 72 h at 37°C in 5% CO2) cells were 30- 80% conf luent. […] 04M HCl were added and absorbances were measured at 595 nm.
Absorbances were plotted against the agent’s concentrations. A high absorbance value […]
present in the well as compared to wells with low absorbance values.
Figure S13 : MTT assays showing no ef f ect of Y9 and sc- Y9 on the viability and prolif eration of diff erent tumor cell lines. […] To indicate background: the absorbance values of medium without cells were between 0.11 and […]

in vitro = conditions: mouse, fresh mouse serum
Procedure: as §7, §8, §9, §10, §11, §12, §13, §14
The absorption peak observed at the

CC[C@H](C)[C@H](NC(=O)[C@H](CCSC)NC=O)C(=O)N[C@@H](Cc1ccccc1)C(=O)N[C@@H](CC(C)C)C(=O)NCC(=O)NCC(=O)N[C@@H](CCCCNC(=O)CCOCCOCCOCCOCCOCCOCCOCCOCCOCCOCCOCCOCCOCCOCCOCCOCCOCCOCCOCCOCCOCCOCCOCCOCCOCCOCCOCCOCCNC(=O)[C@H]1CSSC[C@@H](N)C(=O)N[C@H](CC(=O)O)C(=O)NCC(=O)N[C@@H](Cc2ccc(O)c([N+](=O)[O-])c2)C(=O)NCC(=O)N2C[C@H](O)C[C@H]2C(=O)N[C@@H](CC(N)=O)C(=O)N1)C(=O)N[C@@H](CCCCNC(=O)CCOCCOCCOCCOCCOCCOCCOCCOCCOCCOCCOCCOCCOCCOCCOCCOCCOCCOCCOCCOCCOCCOCCOCCOCCOCCOCCOCCOCCNC(=O)[C@H]1CSSC[C@@H](N)C(=O)N[C@H](CC(=O)O)C(=O)NCC(=O)N[C@@H](Cc2ccc(O)c([N+](=O)[O-])c2)C(=O)NCC(=O)N2C[C@H](O)C[C@H]2C(=O)N[C@@H](CC(N)=O)C(=O)N1)C(=O)O [Y9] (I: H-[dC][dD]G[Tyr(3-NO2)]G[Hyp]N[dC][PEG28] / II: H-[dC][dD]G[Tyr(3-NO2)]G[Hyp]N[dC][PEG28] / III: For-MIFLGGKK-OH; disulfide I:1-I:8, II:1-II:8; amide I:C-III:7, II:C-III:8)
immune infiltrates (mouse skin): dose-dependent increases in immune infiltrates
immune infiltrate (guinea pig skin; guinea pigs immune suppressed by four weekly injections of cyclophosphamide): less intense
immune cell infiltration into the injection site (guinea pig skin; guinea pigs, 24 h): most pronounced
time Y9 remains largely intact [1]: > 24 h
concentration to displace B9-Biotin relative to the monovalent binder (HT-29 cells): four-fold lower
effect on viability and proliferation (MTT) [2]: No effect
metabolised at 48 h, 60 µM (in vitro): 20%
